Patent US5767236A, “Linear therapeutic peptides” (Biomeasure, Inc., priority 1995, dated 1998)

Molecular target: T1, GRP receptor (Rattus norvegicus, UniProt P52500)
T1 construct: endogenous in cells; host or cells: rat AR42J pancreatic acinar cells (membrane preparation)
Assay: Assay on binding to GRP receptor ([125I-Tyr4]bombesin displacement, AR42J cell membranes)
Conditions: for IC50: rat AR42J cell membranes, [125I-Tyr4]bombesin, 30 min, 4° C., read-out: IC50, affinity binding for the GRP receptors; for increase in the affinity for the GRP receptor compared with litorin or Leu-litorin: ratio of IC50 values versus litorin / Leu-litorin
Procedure: Rat AR42J pancreatic acinar cells were cultured in Dulbecco's modified Eagle's medium without antibiotics and supplemented with 10% (vol/vol) fetal calf serum. The incubation atmosphere consisted of 10% C)2 -90% humidified air at 37° C.
Membranes for the bombesin receptor binding assay were obtained by homogenizing AR42J cells (Polytron, setting 6, 15 sec) in ice-cold 50 mM Tris-HCl (Buffer A) and centrifuging twice at 39,000× g (10 min), with an intermediate resuspension in fresh buffer. The final pellets were resuspended in 50 mM Tris-HCl, containing 0.1 mg/ml bacitracin, and 0.1% BSA (Buffer B), and held on ice for the receptor binding assay.
For assay, aliquots (0.4 ml) were incubated with 0.05 ml [^125 I-Tyr^4 ] bombesin (~2200 Ci/mmol, New England Nuclear) and Buffer B, with and without 0.05 ml of unlabeled competing analogs. After a 30 min incubation (4° C.), the bound [^125 I-Tyr^4 ] bombesin was separated from the free by rapid filtration through GF/B filters which had been previously soaked in 0.1% polyethyleneimine. The filters were then washed three times with 5 ml aliquots of ice-cold Buffer A. Specific binding was defined as the total [^125 I-Tyr^4 ] bombesin bound minus that bound in the presence of 1 μM unlabeled bombesin.

T1 sequence (P52500 whole entry): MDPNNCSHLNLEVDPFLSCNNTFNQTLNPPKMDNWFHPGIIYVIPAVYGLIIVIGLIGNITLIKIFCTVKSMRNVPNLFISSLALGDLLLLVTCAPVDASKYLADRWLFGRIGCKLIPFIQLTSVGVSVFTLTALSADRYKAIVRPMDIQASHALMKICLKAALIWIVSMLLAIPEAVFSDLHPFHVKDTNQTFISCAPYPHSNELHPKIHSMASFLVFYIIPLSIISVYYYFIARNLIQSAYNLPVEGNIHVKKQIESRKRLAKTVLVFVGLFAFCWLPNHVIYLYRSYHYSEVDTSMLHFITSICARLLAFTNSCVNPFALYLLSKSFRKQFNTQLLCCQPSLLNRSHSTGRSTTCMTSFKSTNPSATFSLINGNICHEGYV

SMILES | IC50 [nM] | increase in the affinity for the GRP receptor compared with litorin or Leu-litorin
CCCC[C@H](NC(=O)[C@H](Cc1ccccc1)NC(=O)[C@H](Cc1c[nH]cn1)NC(=O)CNC(=O)[C@@H](NC(=O)[C@H](C)NC(=O)[C@H](Cc1c[nH]c2ccccc12)NC(=O)[C@H](CCC(N)=O)NC(=O)[C@H](N)Cc1ccc(O)cc1)C(C)C)C(N)=O [BIM-26270, H--D-Tyr--Gln--Trp--Ala--Val--Gly--His--Phe--Nle--NH2] | 0.1 | 24 to 230 times
CSCC[C@H](NC(=O)[C@H](Cc1ccccc1)NC(=O)[C@H](Cc1c[nH]cn1)NC(=O)CNC(=O)[C@@H](NC(=O)[C@H](C)NC(=O)[C@H](Cc1c[nH]c2ccccc12)NC(=O)[C@H](CCC(N)=O)NC(=O)[C@H](N)Cc1ccc(O)cc1)C(C)C)C(N)=O [BIM-26271, H--D-Tyr--Gln--Trp--Ala--Val--Gly--His--Phe--Met--NH2] | 0.5 | 5- to 15 times
CSCC[C@H](NC(=O)[C@H](CC(C)C)NC(=O)[C@H](Cc1c[nH]cn1)NC(=O)CNC(=O)[C@@H](NC(=O)[C@H](C)NC(=O)[C@H](Cc1c[nH]c2ccccc12)NC(=O)[C@H](CCC(N)=O)NC(=O)[C@H](N)Cc1ccc(O)cc1)C(C)C)C(N)=O [BIM-26274, H--D-Tyr--Gln--Trp--Ala--Val--Gly--His--Leu--Met--NH2] | 0.3 | 
CC(C)C[C@H](NC(=O)[C@H](CC(C)C)NC(=O)[C@H](Cc1c[nH]cn1)NC(=O)CNC(=O)[C@@H](NC(=O)[C@H](C)NC(=O)[C@H](Cc1c[nH]c2ccccc12)NC(=O)[C@H](CCC(N)=O)NC(=O)[C@H](N)Cc1ccc(O)cc1)C(C)C)C(N)=O [BIM-26278, H--D-Tyr--Gln--Trp--Ala--Val--Gly--His--Leu--Leu--NH2] | 1.5 | 5- to 15 times
CCCC[C@H](NC(=O)[C@H](CC(C)C)NC(=O)[C@H](Cc1c[nH]cn1)NC(=O)CNC(=O)[C@@H](NC(=O)[C@H](C)NC(=O)[C@H](Cc1c[nH]c2ccccc12)NC(=O)[C@H](CCC(N)=O)NC(=O)[C@H](N)Cc1ccc(O)cc1)C(C)C)C(N)=O [BIM-26279, H--D-Tyr--Gln--Trp--Ala--Val--Gly--His--Leu--Nle--NH2] | 1.7 | 
CC(C)C[C@H](NC(=O)[C@H](Cc1ccccc1)NC(=O)[C@H](Cc1c[nH]cn1)NC(=O)CNC(=O)[C@@H](NC(=O)[C@H](C)NC(=O)[C@H](Cc1c[nH]c2ccccc12)NC(=O)[C@H](CCC(N)=O)NC(=O)[C@H](N)Cc1ccc(O)cc1)C(C)C)C(N)=O [BIM-26288, H--D-Tyr--Gln--Trp--Ala--Val--Gly--His--Phe--Leu--NH2] | 0.7 | 
